Reference: doi:10.1101/2024.08.19.608619, “Discovery of potent SARS-CoV-2 nsp3 macrodomain inhibitors uncovers lack of translation to cellular antiviral response” (bioRxiv, 2024)
Read-outs that look alike come from different tables or passages of the source.

Columns and labels:
[1] = molecular target: T1, SARS-CoV-2 nsp3-mac1 (Severe acute respiratory syndrome coronavirus 2, UniProt P0DTD1); assay: biochemical; type: biochemical; conditions: SARS-CoV-2 nsp3 macrodomain TR-FRET single point
[2] = molecular target: T1, SARS-CoV-2 nsp3-mac1; assay: biochemical; parameters: SARS-CoV-2 nsp3 macrodomain TR-FRET single point, per cent inhibition, n=2
[3] = read-out: perc_inhibition_mean, batch_name=ASAP-0000389-001
[4] = read-out: perc_inhibition_mean, batch_name=ASAP-0000390-001
[5] = read-out: perc_inhibition_mean, batch_name=ASAP-0000391-001
[6] = read-out: perc_inhibition_mean, batch_name=ASAP-0000392-001
[7] = read-out: perc_inhibition_mean, batch_name=ASAP-0000393-001
[8] = read-out: perc_inhibition_mean, batch_name=ASAP-0000394-001
[9] = read-out: perc_inhibition_mean, batch_name=ASAP-0000395-001
[10] = read-out: perc_inhibition_mean, batch_name=ASAP-0000396-001
[11] = read-out: perc_inhibition_mean, batch_name=ASAP-0000397-001
[12] = read-out: perc_inhibition_mean, batch_name=ASAP-0000398-001
[13] = read-out: perc_inhibition_mean, batch_name=ASAP-0000399-001
[14] = read-out: perc_inhibition_mean, batch_name=ASAP-0000400-001
[15] = read-out: perc_inhibition_mean, batch_name=ASAP-0000401-001
[16] = read-out: perc_inhibition_mean, batch_name=ASAP-0000402-001
[17] = read-out: perc_inhibition_mean, batch_name=ASAP-0000403-001
[18] = read-out: perc_inhibition_mean, batch_name=ASAP-0000404-001
[19] = read-out: perc_inhibition_mean, batch_name=ASAP-0000405-001
[20] = read-out: perc_inhibition_mean, batch_name=ASAP-0000406-001
[21] = read-out: perc_inhibition_mean, batch_name=ASAP-0000407-001
[22] = read-out: perc_inhibition_mean, batch_name=ASAP-0000408-001
[23] = read-out: perc_inhibition_mean, batch_name=ASAP-0000409-001
[24] = read-out: perc_inhibition_mean, batch_name=ASAP-0000410-001
[25] = read-out: perc_inhibition_mean, batch_name=ASAP-0000411-001
[26] = read-out: perc_inhibition_mean, batch_name=ASAP-0000412-001
[27] = read-out: perc_inhibition_mean, batch_name=ASAP-0000413-001
[28] = read-out: perc_inhibition_mean, batch_name=ASAP-0000414-001
[29] = read-out: perc_inhibition_mean, batch_name=ASAP-0000415-001
[30] = read-out: perc_inhibition_mean, batch_name=ASAP-0000416-001

Compound | perc_inhibition_mean ([1]; concentration 49.75 uM) | perc_inhibition_mean ([1]; concentration 99.5 uM) | other results
O=C(c1cccnc1S)N1CCC(c2ccn3ncc(C(=O)N4CCCCC4)c3c2)CC1 [ASAP-0000389] | 32.298% | 52.653% | inhibition at 49.75 µM [2, 3]: 32.3%; inhibition at 99.5 µM [2, 3]: 52.7%
Cc1nc(C(=O)N2CCC(c3ccn4ncc(C(=O)N5CCCCC5)c4c3)CC2)c(C)[nH]1 [ASAP-0000390] | 16.798% | 27.519% | inhibition at 49.75 µM [2, 4]: 16.8%; inhibition at 99.5 µM [2, 4]: 27.5%
CN1CCO[C@@H](CNC(=O)c2cnn3ccc(C4CCN(C(=O)c5ccccc5)CC4)cc23)C1 [ASAP-0000391] | -12.021% | -11.503% | inhibition at 49.75 µM [2, 5]: -12%; inhibition at 99.5 µM [2, 5]: -11.5%
CN1CCC[C@H](NC(=O)c2cnn3ccc(C4CCN(C(=O)c5ccccc5)CC4)cc23)C1 [ASAP-0000392] | -6.989% | -5.439% | inhibition at 49.75 µM [2, 6]: -6.99%; inhibition at 99.5 µM [2, 6]: -5.44%
Cc1[nH]cnc1C(=O)N1CCC(c2ccn3ncc(C(=O)N4CCCCC4)c3c2)CC1 [ASAP-0000393] | 16.419% | 32.041% | inhibition at 49.75 µM [2, 7]: 16.4%; inhibition at 99.5 µM [2, 7]: 32%
O=C(CCN(Cc1cccc(Cl)c1)C(=O)[C@H]1CCOC1)N1CCNCC1 [ASAP-0000394] | 4.078% | -3.965% | inhibition at 49.75 µM [2, 8]: 4.08%; inhibition at 99.5 µM [2, 8]: -3.96%
Cc1[nH]nc(C(=O)N2CCC(c3ccn4ncc(C(=O)N5CCCCC5)c4c3)CC2)c1C [ASAP-0000395] | 18.038% | 33.801% | inhibition at 49.75 µM [2, 9]: 18%; inhibition at 99.5 µM [2, 9]: 33.8%
O=C(c1ccccc1)N1CCC(c2ccn3ncc(C(=O)N4CCCC[C@H](O)C4)c3c2)CC1 [ASAP-0000396] | 17.833% | 29.785% | inhibition at 49.75 µM [2, 10]: 17.8%; inhibition at 99.5 µM [2, 10]: 29.8%
O=C(CCN(Cc1cccc(Cl)c1)C(=O)c1ncccc1Cl)N1CCNCC1 [ASAP-0000397] | 2.753% | 7.518% | inhibition at 49.75 µM [2, 11]: 2.75%; inhibition at 99.5 µM [2, 11]: 7.52%
C[C@@]1(C(N)=O)CCCN1C(=O)c1cnn2ccc(C3CCN(C(=O)c4ccccc4)CC3)cc12 [ASAP-0000398] | -8.039% | 10.386% | inhibition at 49.75 µM [2, 12]: -8.04%; inhibition at 99.5 µM [2, 12]: 10.4%
O=C(N[C@@H]1COCC[C@H]1O)c1cnn2ccc(C3CCN(C(=O)c4ccccc4)CC3)cc12 [ASAP-0000399] | -5.013% | -4.477% | inhibition at 49.75 µM [2, 13]: -5.01%; inhibition at 99.5 µM [2, 13]: -4.48%
Cc1cc(CNC(=O)c2cnn3ccc(C4CCN(C(=O)c5ccccc5)CC4)cc23)n(C)n1 [ASAP-0000400] | -5.508% | -8.125% | inhibition at 49.75 µM [2, 14]: -5.51%; inhibition at 99.5 µM [2, 14]: -8.12%
O=C(CCN(Cc1cccc(Cl)c1)C(=O)C1CCC(O)CC1)N1CCNCC1 (stereo not shown) [ASAP-0000401] | -4.315% | 0.465% | inhibition at 49.75 µM [2, 15]: -4.32%; inhibition at 99.5 µM [2, 15]: 0.465%
O=C(c1ccnc(S)c1)N1CCC(c2ccn3ncc(C(=O)N4CCCCC4)c3c2)CC1 [ASAP-0000402] | 20.252% | 35.496% | inhibition at 49.75 µM [2, 16]: 20.3%; inhibition at 99.5 µM [2, 16]: 35.5%
O=C1CCN(C(=O)c2cnn3ccc(C4CCN(C(=O)c5ccccc5)CC4)cc23)CCN1 [ASAP-0000403] | -2.402% | -7.808% | inhibition at 49.75 µM [2, 17]: -2.4%; inhibition at 99.5 µM [2, 17]: -7.81%
O=C(c1ccccc1)N1CCC(c2ccn3ncc(C(=O)N4CCn5ncnc5C4)c3c2)CC1 [ASAP-0000404] | -3.769% | -3.519% | inhibition at 49.75 µM [2, 18]: -3.77%; inhibition at 99.5 µM [2, 18]: -3.52%
O=C(c1ccncc1)N1CCC(c2ccn3ncc(C(=O)N4CCCCC4)c3c2)CC1 [ASAP-0000405] | 10.851% | 26.497% | inhibition at 49.75 µM [2, 19]: 10.9%; inhibition at 99.5 µM [2, 19]: 26.5%
CCN1CCN(C(=O)c2cnn3ccc(C4CCN(C(=O)c5ccccc5)CC4)cc23)CC1=O [ASAP-0000406] | -8.634% | -3.464% | inhibition at 49.75 µM [2, 20]: -8.63%; inhibition at 99.5 µM [2, 20]: -3.46%
C[C@@H](NC(=O)c1cnn2ccc(C3CCN(C(=O)c4ccccc4)CC3)cc12)c1cc[nH]n1 [ASAP-0000407] | -4.99% | -2.773% | inhibition at 49.75 µM [2, 21]: -4.99%; inhibition at 99.5 µM [2, 21]: -2.77%
O=C(CCN(Cc1cccc(Cl)c1)C(=O)[C@@H]1CC1(F)F)N1CCNCC1 [ASAP-0000408] | -2.073% | -3.764% | inhibition at 49.75 µM [2, 22]: -2.07%; inhibition at 99.5 µM [2, 22]: -3.76%
O=C(CCN(Cc1cccc(Cl)c1)C(=O)c1ccc(O)cc1)N1CCNCC1 [ASAP-0000409] | -0.343% | -1.632% | inhibition at 49.75 µM [2, 23]: -0.343%; inhibition at 99.5 µM [2, 23]: -1.63%
Cc1nsc(N(C)C(=O)c2cnn3ccc(C4CCN(C(=O)c5ccccc5)CC4)cc23)n1 [ASAP-0000410] | -10.512% | -11.519% | inhibition at 49.75 µM [2, 24]: -10.5%; inhibition at 99.5 µM [2, 24]: -11.5%
O=C(c1ccccc1)N1CCC(c2ccn3ncc(C(=O)N4CCc5cccnc54)c3c2)CC1 [ASAP-0000411] | -4.67% | -8.02% | inhibition at 49.75 µM [2, 25]: -4.67%; inhibition at 99.5 µM [2, 25]: -8.02%
CN(C[C@H]1CCCN1)C(=O)c1cnn2ccc(C3CCN(C(=O)c4ccccc4)CC3)cc12 [ASAP-0000412] | -7.471% | -6.586% | inhibition at 49.75 µM [2, 26]: -7.47%; inhibition at 99.5 µM [2, 26]: -6.59%
O=C1CC[C@@H](CNC(=O)c2cnn3ccc(C4CCN(C(=O)c5ccccc5)CC4)cc23)N1 [ASAP-0000413] | -2.317% | -1.468% | inhibition at 49.75 µM [2, 27]: -2.32%; inhibition at 99.5 µM [2, 27]: -1.47%
Cc1[nH]ncc1CN(C)C(=O)c1cnn2ccc(C3CCN(C(=O)c4ccccc4)CC3)cc12 [ASAP-0000414] | -1.138% | 0.307% | inhibition at 49.75 µM [2, 28]: -1.14%; inhibition at 99.5 µM [2, 28]: 0.307%
O=C(c1cccnc1O)N1CCC(c2ccn3ncc(C(=O)N4CCCCC4)c3c2)CC1 [ASAP-0000415] | -7.036% | -3.94% | inhibition at 49.75 µM [2, 29]: -7.04%; inhibition at 99.5 µM [2, 29]: -3.94%
Cc1ccc(C(=O)N(CCC(=O)N2CCNCC2)Cc2cccc(Cl)c2)[nH]1 [ASAP-0000416] | -5.904% | -3.936% | inhibition at 49.75 µM [2, 30]: -5.9%; inhibition at 99.5 µM [2, 30]: -3.94%
